Assay results published in patent US20230248735A1, “COMPOSITIONS FOR PREVENTING OR TREATING CHRONIC OBSTRUCTIVE PULMONARY DISEASES (COPD)” (Chong Kun Dang Pharmaceutical Corp., priority 2019, published 2023).

Experiments:
A549 cells = assay: Inhibitory effect on TGF-β1-induced EMT (E-Cad and N-Cad expression, Western blot); format: cell-based; conditions: 5 ng/mL TGF-β1, 48 hours, compared to Vhcl (TGF-β1), FIG. 5
Experimental: (§1) In order to confirm an effect of the compound according to the present invention on preventing or treating chronic obstructive pulmonary disease, an expression of an epithelial marker protein (E-Cad) and a mesenchymal marker protein (N-Cad) was analyzed. A549 cells were cultured in RPMI-1640 medium containing 10% fetal bovine serum (FBS) and 1% penicillin-streptomycin (P/S). The 1.5×10^5 cells were plated in a 6-well plate and incubated overnight. The cells were cultured with 5 ng/mL of recombinant human transforming growth factor beta 1 (TGF-β1) to induce an epithelial-to-mesenchymal transition (EMT). TGF-β1 was diluted with RPMI-1640 (1% FBS, 1% P/S) and incubated with the cells for 48 hours. The 500 µL of culture medium was loaded on a centrifugal filter (Amicon® Ultra-0.5 mL) and centrifuged at 14,000×g for 10 minutes. The enriched culture medium was boiled with 15 µL of 4X sample buffer at 100° C. for five minutes and analyzed by using the Western blot. The cells were lysed by using an RIPA buffer containing a protease inhibitor cocktail and a phosphatase inhibitor cocktail. A lysate was incubated on ice for three minutes and centrifuged at 13,000×g, 4° C. for 20 minutes. A supernatant was quantified by using a BCA protein assay kit and analyzed by the Western blot. The prepared sample was loaded on NuPAGE Novex 4-12% Bis-Tris gel and decomposed at 120 V Proteins were transferred to a nitrocellulose membrane by using an iBlot machine. The membrane was blocked by using EzBlock Chemi according to the manufacturer’s instructions. Antibodies such as E-cadherin (E-Cad), N-cadherin (N-cad), Fibronectin-EDA (FN-EDA), etc., were used. After reaction with a horseradish peroxidase (HRP)-conjugated secondary antibody, immunoreactive proteins were visualized by using Amersham® ECL select® Western blot detection reagent, and detected by ChemiDoc® MP imaging system. The intensity of the band was quantified with ImageJ software and normalized to β-actin.

FN-EDA in A549 cells = assay: FN-EDA protein reduction in TGF-β1-treated cells (Western blot); format: cell-based; conditions: 5 ng/mL TGF-β1, 48 hours, compared to Vhcl (TGF-β1), FIG. 6
Experimental: as §1
In order to confirm an effect of the compound according to the present invention on preventing or treating chronic obstructive pulmonary disease, an expression of FN-EDA, a key extracellular matrix (ECM) protein, was analyzed. The analysis was performed by the same method as described in Example 2 above.

[1] = test system: mouse with induced COPD (smoking + Poly I:C); assay: Evaluation of immune cell infiltration in H&E-stained lung tissue sections, smoking + Poly I:C COPD model; format: in vivo, C57BL/6 mouse; conditions: 30 mg/kg P.O. Q.D.; compared to smoking + Poly I:C (SM+no drug); FIG. 2
Source text: A C57BL/6 mouse (female, seven weeks old) was placed in a sealed smoking box and exposed to cigarette smoke for a certain period of time to induce COPD disease. Specifically, the mouse was put into the smoking box, after which a cigarette was lit and its filter was connected to a tube under a negative pressure, so that cigarette smoke could be continuously produced. Then, the smoking box was blocked, so that the mouse was forced to inhale the cigarette smoke while breathing in. The mouse was allowed to smoke for a total of four weeks. The mouse was exposed to one, two and four cigarettes once on the first, second and third days of the first week, respectively, and again exposed to four cigarettes twice and three times on the fourth and fifth days, respectively. After that, the mouse was exposed to four cigarettes three times a day for the remaining three weeks. […]
In order to confirm an effect of the compound according to the present invention on preventing or treating chronic obstructive pulmonary disease, a degree of immune cell infiltration was evaluated. […] According to a reference image of FIG. 1, a degree of cellular infiltration was determined as a score of 0 to 3, and the score was measured by observing slides for each group [FIG. 1: 0-none, 1-mild, 2-moderate, and 3-severe].

[2] = test system: mouse with induced COPD (smoking + Poly I:C); assay: Analysis of bronchoalveolar lavage fluid (BAL fluid) cell counts, smoking + Poly I:C COPD model; format: in vivo, C57BL/6 mouse; conditions: 30 mg/kg P.O. Q.D.; compared with SM+no drug; FIG. 3
Source text: (§2) A C57BL/6 mouse (female, seven weeks old) was placed in a sealed smoking box and exposed to cigarette smoke for a certain period of time to induce COPD disease. Specifically, the mouse was put into the smoking box, after which a cigarette was lit and its filter was connected to a tube under a negative pressure, so that cigarette smoke could be continuously produced. Then, the smoking box was blocked, so that the mouse was forced to inhale the cigarette smoke while breathing in. The mouse was allowed to smoke for a total of four weeks. The mouse was exposed to one, two and four cigarettes once on the first, second and third days of the first week, respectively, and again exposed to four cigarettes twice and three times on the fourth and fifth days, respectively. After that, the mouse was exposed to four cigarettes three times a day for the remaining three weeks. Poly I:C (polyinosinic:polycytidylic acid) was administered into a nasal cavity of the anesthetized mouse twice a week in the third and fourth weeks during induction of smoking, so that a model of smoking + Poly I:C COPD (chronic obstructive pulmonary disease) was induced.
(§3) In order to confirm a drug administration effect of the compound according to the present invention, mice with induced COPD were divided into each group of six mice, and each of the groups was is classified as shown in a following table 1 according to an administered substance [vehicle (Veh), compound 374 (SM+1), or compound 458 (SM+2)], a route of administration [oral administration (P.O.)], and an administration interval [daily (Q.D.)].
In order to confirm an effect of the compound according to the present invention on preventing or treating chronic obstructive pulmonary disease, bronchoalveolar lavage fluid (BAL fluid) was analyzed. The 2 mL of the BAL fluid was separated from the mice of each group and centrifuged. After that, the resulting fluid was suspended in a phosphate buffer solution (PBS), after which the number of total cells was counted, and 2 × 10^5 cells were attached to a slide through a cytospin. After staining with a diff-quick stain kit, the resulting cells were classified into macrophage, neutrophil, etc. based on the properties of the stained cells, so as to count a total of 300 cells, after which a rate of respective cells was calculated with regard to the number of total cells to make a comparison among the groups.

[3] = test system: IL-6, IFN-γ, MCP-1, TNF-α; assay: Expression of inflammatory cytokines in lung tissue by real-time PCR, smoking + Poly I:C COPD model; format: in vivo, C57BL/6 mouse; conditions: 30 mg/kg P.O. Q.D., compared with SM+no drug, FIG. 4
Source text: as §2, §3
In order to confirm an effect of the compound according to the present invention on preventing or treating chronic obstructive pulmonary disease, an expression of inflammatory cytokines in lung tissues was analyzed. Lungs were removed from mice of each group, after which RNA was isolated from the lung tissues. For each RNA, cDNA synthesis was performed by using a reverse transcriptase, after which an expression of inflammatory cytokine markers such as IL-6, IFN-y, MCP-1, and TNF-α was analyzed through real-time PCR, so as to compare a degree of induced inflammation among the groups. In this case, a sequence of a primer used in the experiment is the same as shown in a following table 2. (* P < 0.05, ** P < 0.01, and *** P < 0.001)

| Structure (SMILES) | expression of E-Cad (epithelial marker protein) (A549 cells) | expression of N-Cad (mesenchymal marker protein) (A549 cells) | expression of key ECM protein FN-EDA (FN-EDA in A549 cells) | cellular infiltration score (0 to 3) in lung tissue [1] | number of macrophages in BAL fluid [2] | number of neutrophils in BAL fluid [2] | number of total cells in BAL fluid [2] | expression of IFN-y in lung tissue [3] | expression of IL-6 in lung tissue [3] | expression of MCP-1 in lung tissue [3] | expression of TNF-α in lung tissue [3] |
| --- | --- | --- | --- | --- | --- | --- | --- | --- | --- | --- | --- |
| O=C(NO)c1ccc(CN(C(=O)N2CCOCC2)c2cccc(C(F)(F)F)c2)cc1 [Compound 374, N-(4-(hydroxycarbamoyl)benzyl)-N-(3-(trifluoromethyl)phenyl)morpholine-4-carboxamide] | remarkable increase | remarkable decrease | remarkable decrease |  |  |  |  |  |  |  |  |
| O=C(NO)c1ccc(CN(C(=O)N2CCOCC2)c2ccc(F)cc2F)cc1 [Compound 413, N-(2,4-difluorophenyl)-N-(4-(hydroxycarbamoyl)benzyl)morpholine-4-carboxamide] | remarkable increase | remarkable decrease | remarkable decrease |  |  |  |  |  |  |  |  |
| O=C(NO)c1ccc(CN(C(=O)N2CCOCC2)c2ccc(F)c(Cl)c2)cc1 [Compound 458, N-(3-chloro-4-fluorophenyl)-N-(4-(hydroxycarbamoyl)benzyl)morpholine-4-carboxamide] | remarkable increase | remarkable decrease | remarkable decrease |  |  |  |  |  |  |  |  |
| COc1cccc(N(Cc2ccc(C(=O)NO)cc2)C(=O)N2CCOCC2)c1 [Compound 484, N-(4-(Hydroxycarbamoyl)Benzyl)-N-(3-Methoxyphenyl)Morpholine-4-Carboxamide] | remarkable increase | remarkable decrease | remarkable decrease |  |  |  |  |  |  |  |  |
| O=C(NO)c1ccc(CN(C(=O)N2CCOCC2)c2cccc(F)c2)cc1 [Compound 530] | remarkable increase | remarkable decrease | remarkable decrease |  |  |  |  |  |  |  |  |
| O=C(NO)c1ccc(CN(C(=O)N2CCCOCC2)c2cccc(F)c2)cc1 [Compound 652] | remarkable increase | remarkable decrease | remarkable decrease |  |  |  |  |  |  |  |  |
| O=C(NO)c1ccc(CN(C(=O)N2CCOCC2)c2cccc(C(F)(F)F)c2)cc1 [SM+1, N-(4-(hydroxycarbamoyl)benzyl)-N-(3-(trifluoromethyl)phenyl)morpholine-4-carboxamide] |  |  |  | decrease | decreased | decreased | decreased | decreased | decreased | decreased | decreased |
| O=C(NO)c1ccc(CN(C(=O)N2CCOCC2)c2ccc(F)c(Cl)c2)cc1 [SM+2, N-(3-chloro-4-fluorophenyl)-N-(4-(hydroxycarbamoyl)benzyl)morpholine-4-carboxamide] |  |  |  | decrease | decreased | decreased | decreased | decreased | decreased | decreased | decreased |
